From US20070037833A1, “Compositions and methods for inhibiting neurodegeneration” (priority 2005, published 2007)

Tests used:
[1] = system: motor neurons; assay: Cholesterol content of pure motor neuron cultures (Amplex Red Cholesterol Assay); type: cell-based, rat; details: after 30 minutes of treatment
Experimental: Two hundred thousand motor neurons were plated in wells of a 96 well dish and after 24 hrs. treated with βMCD or vehicle. Thirty minutes later cholesterol content was determined using the Amplex® Red Cholesterol Assay kit (Molecular Probes) according to the manufacturers instructions. All determinations were made in quintuplicate and normalized to protein content (determined using Protein Assay kit (Bio-Rad)).
Finally to begin to determine the biological relevance of the lipid raft signaling complex, we asked if their disruption with cholesterol depleting agents would affect the capacity of BDNF to confer excitotoxic sensitivity upon motor neurons. Pure motor neurons were grown in the presence of CT-1 but in the absence of BDNF for 24 hours at which point the cholesterol depleting agent, β-methylcyclodextin (βMCD) or vehicle was added to the cultures. Thirty minutes later, BDNF or vehicle was added to the culture and 3 hours later the excitoticity assay was performed (FIG. 6b). We determined the amount of cholesterol in our pure motor neuron cultures after 30 minutes of βMCD treatment and found an ˜25% reduction in comparison with vehicle treatment (βMCD v. vehicle; 404±31 μg/μg protein versus 550±16 μg/μg protein, n=5 samples, t-test, p<0.001). […]

[2] = system: pure motor neurons grown in CT-1; assay: BDNF-conferred excitotoxic sensitivity of pure motor neurons after cholesterol depletion; type: cell-based; details: for excitotoxic cell death: acute BMCD or vehicle followed by BDNF or vehicle, then kainate
Experimental: Finally to begin to determine the biological relevance of the lipid raft signaling complex, we asked if their disruption with cholesterol depleting agents would affect the capacity of BDNF to confer excitotoxic sensitivity upon motor neurons. Pure motor neurons were grown in the presence of CT-1 but in the absence of BDNF for 24 hours at which point the cholesterol depleting agent, β-methylcyclodextin (βMCD) or vehicle was added to the cultures. Thirty minutes later, BDNF or vehicle was added to the culture and 3 hours later the excitoticity assay was performed (FIG. 6b). We determined the amount of cholesterol in our pure motor neuron cultures after 30 minutes of βMCD treatment and found an ˜25% reduction in comparison with vehicle treatment (βMCD v. vehicle; 404±31 μg/μg protein versus 550±16 μg/μg protein, n=5 samples, t-test, p<0.001). In terms of cell death, a statistically significant difference between experimental groups was identified by ANOVA (F(5,42)=32.797; P<0.001) and a post hoc analysis (Scheffé with level of significance set at P<0.05) indicated excitotoxic death only occurred in the (+)BDNF/(−)βMCD treatment group (# of motor neurons exposed to vehicle or kainate; 57±7 versus 40±4).

[3] = system: ALS patients; details: intrathecal 25 μg/day or 150 μg/day versus vehicle, 18 months; cited from earlier work

Molecule	reduction of cholesterol in comparison with vehicle [1]	# of motor neurons ([2]; (+)BDNF/(+)βMCD group, exposed to kainate)	# of motor neurons ([2]; (+)BDNF/(+)βMCD group, exposed to vehicle)	# of motor neurons ([2]; (−)BDNF/(+)βMCD group, exposed to kainate)	# of motor neurons ([2]; (−)BDNF/(+)βMCD group, exposed to vehicle)	toxicity to motor neurons ([2]; BMCD alone)	excitotoxic cell death [2]	survival rate (survival free of ventilatory support) [3]	# of motor neurons ([2]; (+)BDNF/(−)βMCD group, exposed to kainate)	# of motor neurons ([2]; (+)BDNF/(−)βMCD group, exposed to vehicle)
β-methylcyclodextin [βMCD]	~25%	51±5	58±4	60±5	60±3	non-toxic	did not occur			
BDNF: brain-derived neurotrophic factor, activates the receptor tyrosine kinase TrkB (protein, UniProt P23560 19-247, looked up) Neurotrophic factor BDNF …: APMKEANIRGQGGLAYPGVRTHGTLESVNGPKAGSRGLTSLADTFEHVIEELLDEDQKVRPNEENNKDADLYTSRVMLSSQVPLEPPLLFLLEEYKNYLDAANMSMRVRRHSDPARRGELSVCDSISEWVTAADKKTAVDMSGGTVTVLEKVPVSKGQLKQYFYETKCNPMGYTKEGCRGIDKRHWNSQCRTTQSYVRALTMDSKKRIGWRFIRIDTSCVCTLTIKRGR							Excitotoxic cell death occurred	lower than in the placebo group	40±4	57±7
